Assay results taken from ChEMBL document CHEMBL1201862, “PubChem BioAssay data set” (2004).
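How tested: cells in 96-well plates exposed to compound for 48 hours at five concentrations. GI50 = concentration required for 50% inhibition of growth.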 Active and inactive are the calls of the source. No stated cut-off is given here; in the data, active = GI50 up to about 1.1 µM and inactive = higher.

How the values were obtained:
Experiment in all cases: inhibition of tumour cell growth, NCI panel, 48 h
OVCAR-8 = test system: OVCAR-8
SNB-75 = test system: SNB-75
SR = test system: SR
UO-31 = test system: UO-31
HCT-116 = test system: HCT-116
IGROV-1 = test system: IGROV-1
SK-MEL-5 = test system: SK-MEL-5
NCI/ADR-RES = test system: NCI/ADR-RES
HCC 2998 = test system: HCC 2998
SF-295 = test system: SF-295
786-0 = test system: 786-0
EKVX = test system: EKVX
M14 = test system: M14
KM12 = test system: KM12
K562 = test system: K562
NCI-H460 = test system: NCI-H460
HCT-15 = test system: HCT-15
SF-268 = test system: SF-268
RXF 393 = test system: RXF 393
CCRF-CEM = test system: CCRF-CEM
SF-539 = test system: SF-539
OVCAR-3 = test system: OVCAR-3
LOX IMVI = test system: LOX IMVI
MDA-MB-435 = test system: MDA-MB-435
A549 = test system: A549
NCI-H226 = test system: NCI-H226
UACC-257 = test system: UACC-257
HL-60 = test system: HL-60
DU-145 = test system: DU-145
CAKI-1 = test system: CAKI-1
SW-620 = test system: SW-620
TK-10 = test system: TK-10
NCI-H23 = test system: NCI-H23
OVCAR-5 = test system: OVCAR-5
U-251 = test system: U-251
T47D = test system: T47D
MDA-MB-231 = test system: MDA-MB-231
SN12C = test system: SN12C
MDA-N = test system: MDA-N
HOP-62 = test system: HOP-62
SK-OV-3 = test system: SK-OV-3
MOLT-4 = test system: MOLT-4
SNB-19 = test system: SNB-19
SK-MEL-2 = test system: SK-MEL-2
Malme-3M = test system: Malme-3M
RPMI-8226 = test system: RPMI-8226
HOP-92 = test system: HOP-92
OVCAR-4 = test system: OVCAR-4
PC-3 = test system: PC-3
ACHN = test system: ACHN
BT-549 = test system: BT-549
MCF7 = test system: MCF7
SK-MEL-28 = test system: SK-MEL-28
HT-29 = test system: HT-29
UACC-62 = test system: UACC-62
COLO 205 = test system: COLO 205
A498 = test system: A498
NCI-H522 = test system: NCI-H522

## COC(=O)/C=C/C1(O)C=CC(=O)C=C1
OVCAR-8
  GI50: 3.4 µM (inactive)
SNB-75
  GI50: 9.86 µM (inactive)
SR
  GI50: 2.55 µM (inactive)
UO-31
  GI50: 1.7 µM (inactive)
HCT-116
  GI50: 1.88 µM (inactive)
IGROV-1
  GI50: 2.69 µM (inactive)
SK-MEL-5
  GI50: 4.65 µM (inactive)
NCI/ADR-RES
  GI50: 3.5 µM (inactive)
HCC 2998
  GI50: 7.52 µM (inactive)
SF-295
  GI50: 11 µM (inactive)
786-0
  GI50: 2.23 µM (inactive)
EKVX
  GI50: 3.61 µM (inactive)
M14
  GI50: 1.79 µM (inactive)
KM12
  GI50: 2.32 µM (inactive)
K562
  GI50: 3.15 µM (inactive)
NCI-H460
  GI50: 16.3 µM (inactive)
HCT-15
  GI50: 2.66 µM
SF-268
  GI50: 2.22 µM (inactive)
RXF 393
  GI50: 3.12 µM (inactive)
CCRF-CEM
  GI50: 1.77 µM (inactive)
SF-539
  GI50: 2.15 µM (inactive)
OVCAR-3
  GI50: 2.17 µM (inactive)
LOX IMVI
  GI50: 2.07 µM (inactive)
MDA-MB-435
  GI50: 5.13 µM (inactive)
A549
  GI50: 8.3 µM (inactive)
NCI-H226
  GI50: 19.6 µM (inactive)
UACC-257
  GI50: 3.3 µM (inactive)
HL-60
  GI50: 2.38 µM (inactive)
DU-145
  GI50: 2.59 µM (inactive)
CAKI-1
  GI50: 1.41 µM (inactive)
SW-620
  GI50: 5.7 µM (inactive)
TK-10
  GI50: 5.37 µM (inactive)
NCI-H23
  GI50: 3.31 µM (inactive)
OVCAR-5
  GI50: 5.78 µM (inactive)
U-251
  GI50: 3.67 µM (inactive)
T47D
  GI50: 2.67 µM (inactive)
MDA-MB-231
  GI50: 2.95 µM (inactive)
SN12C
  GI50: 1.77 µM (inactive)
MDA-N
  GI50: 1.89 µM (inactive)
HOP-62
  GI50: 4.37 µM (inactive)
SK-OV-3
  GI50: 17 µM (inactive)
MOLT-4
  GI50: 2.02 µM (inactive)
SNB-19
  GI50: 3.83 µM (inactive)
SK-MEL-2
  GI50: 6.32 µM (inactive)
Malme-3M
  GI50: 2.62 µM (inactive)
RPMI-8226
  GI50: 2.45 µM (inactive)
HOP-92
  GI50: 3.66 µM (inactive)
OVCAR-4
  GI50: 3.94 µM (inactive)
PC-3
  GI50: 2.34 µM (inactive)
ACHN
  GI50: 2.1 µM (inactive)
BT-549
  GI50: 5.27 µM (inactive)
MCF7
  GI50: 2.87 µM (inactive)
SK-MEL-28
  GI50: 3.44 µM (inactive)
HT-29
  GI50: 2.51 µM (inactive)
UACC-62
  GI50: 3 µM (inactive)
COLO 205
  GI50: 3.4 µM (inactive)
A498
  GI50: 26.9 µM (inactive)
NCI-H522
  GI50: 0.338 µM (active)

## CCCNC(=S)N/C=C1/C(=O)C=C(C)OC1=O
OVCAR-8
  GI50: > 100 µM (inactive)
SNB-75
  GI50: > 100 µM (inactive)
UO-31
  GI50: > 100 µM (inactive)
HCT-116
  GI50: > 100 µM (inactive)
IGROV-1
  GI50: > 100 µM (inactive)
SK-MEL-5
  GI50: > 100 µM (inactive)
NCI/ADR-RES
  GI50: > 100 µM (inactive)
HCC 2998
  GI50: > 100 µM (inactive)
SF-295
  GI50: > 100 µM (inactive)
786-0
  GI50: > 100 µM (inactive)
EKVX
  GI50: > 100 µM (inactive)
M14
  GI50: > 100 µM (inactive)
KM12
  GI50: > 100 µM (inactive)
NCI-H460
  GI50: > 100 µM (inactive)
HCT-15
  GI50: > 100 µM
SF-539
  GI50: > 100 µM (inactive)
OVCAR-3
  GI50: > 100 µM (inactive)
LOX IMVI
  GI50: > 100 µM (inactive)
MDA-MB-435
  GI50: > 100 µM (inactive)
A549
  GI50: > 100 µM (inactive)
NCI-H226
  GI50: > 100 µM (inactive)
UACC-257
  GI50: > 100 µM (inactive)
DU-145
  GI50: > 100 µM (inactive)
CAKI-1
  GI50: > 100 µM (inactive)
SW-620
  GI50: > 100 µM (inactive)
TK-10
  GI50: 26.7 µM (inactive)
NCI-H23
  GI50: > 100 µM (inactive)
OVCAR-5
  GI50: > 100 µM (inactive)
U-251
  GI50: > 100 µM (inactive)
T47D
  GI50: > 100 µM (inactive)
MDA-MB-231
  GI50: > 100 µM (inactive)
SN12C
  GI50: > 100 µM (inactive)
MDA-N
  GI50: > 100 µM (inactive)
HOP-62
  GI50: > 100 µM (inactive)
SK-OV-3
  GI50: > 100 µM (inactive)
MOLT-4
  GI50: > 100 µM (inactive)
SNB-19
  GI50: > 100 µM (inactive)
SK-MEL-2
  GI50: > 100 µM (inactive)
HOP-92
  GI50: > 100 µM (inactive)
OVCAR-4
  GI50: > 100 µM (inactive)
PC-3
  GI50: > 100 µM (inactive)
ACHN
  GI50: > 100 µM (inactive)
BT-549
  GI50: > 100 µM (inactive)
MCF7
  GI50: > 100 µM (inactive)
SK-MEL-28
  GI50: > 100 µM (inactive)
HT-29
  GI50: > 100 µM (inactive)
UACC-62
  GI50: > 100 µM (inactive)
COLO 205
  GI50: > 100 µM (inactive)

## CC[C@@]1(CCC(=O)NCCc2c[nH]c3ccccc23)CCC(=O)N2CCc3c([nH]c4ccccc34)[C@H]21
UO-31
  GI50: 22.9 µM (inactive)
HCT-116
  GI50: 11.8 µM (inactive)
IGROV-1
  GI50: 4.04 µM (inactive)
SK-MEL-5
  GI50: 24.2 µM (inactive)
NCI/ADR-RES
  GI50: 4.57 µM (inactive)
HCC 2998
  GI50: 14.2 µM (inactive)
SF-295
  GI50: 5.13 µM (inactive)
786-0
  GI50: 11.7 µM (inactive)
EKVX
  GI50: 12.2 µM (inactive)
M14
  GI50: 12.6 µM (inactive)
KM12
  GI50: 4.19 µM (inactive)
K562
  GI50: 7.45 µM (inactive)
NCI-H460
  GI50: 6.89 µM (inactive)
HCT-15
  GI50: 20 µM
SF-268
  GI50: 5.64 µM (inactive)
RXF 393
  GI50: 6.12 µM (inactive)
CCRF-CEM
  GI50: 7.33 µM (inactive)
SF-539
  GI50: 12 µM (inactive)
OVCAR-3
  GI50: 24.5 µM (inactive)
LOX IMVI
  GI50: 27.4 µM (inactive)
MDA-MB-435
  GI50: 7.36 µM (inactive)
A549
  GI50: 8.73 µM (inactive)
NCI-H226
  GI50: 20 µM (inactive)
UACC-257
  GI50: 14 µM (inactive)
DU-145
  GI50: 29 µM (inactive)
CAKI-1
  GI50: > 100 µM (inactive)
SW-620
  GI50: 25.8 µM (inactive)
TK-10
  GI50: 16.7 µM (inactive)
NCI-H23
  GI50: 10.3 µM (inactive)
OVCAR-5
  GI50: 22.8 µM (inactive)
U-251
  GI50: 29.8 µM (inactive)
T47D
  GI50: 28.7 µM (inactive)
MDA-MB-231
  GI50: 40.7 µM (inactive)
SN12C
  GI50: 39.5 µM (inactive)
MDA-N
  GI50: 12.6 µM (inactive)
HOP-62
  GI50: 37 µM (inactive)
SK-OV-3
  GI50: 36.2 µM (inactive)
MOLT-4
  GI50: 3.71 µM (inactive)
SNB-19
  GI50: 9.71 µM (inactive)
SK-MEL-2
  GI50: 17.1 µM (inactive)
Malme-3M
  GI50: 5.35 µM (inactive)
RPMI-8226
  GI50: 3.08 µM (inactive)
HOP-92
  GI50: 79.3 µM (inactive)
OVCAR-4
  GI50: 12.9 µM (inactive)
PC-3
  GI50: 5.56 µM (inactive)
ACHN
  GI50: 15.3 µM (inactive)
BT-549
  GI50: 4.31 µM (inactive)
MCF7
  GI50: 4.44 µM (inactive)
SK-MEL-28
  GI50: 39.4 µM (inactive)
UACC-62
  GI50: 17.1 µM (inactive)
COLO 205
  GI50: 24.2 µM (inactive)
A498
  GI50: 27.1 µM (inactive)
NCI-H522
  GI50: 3.9 µM (inactive)
